# Experimental data from patent US20150147309A1, “ALLOSTERIC CHAPERONES AND USES THEREOF” (Fondazione Telethon, priority 2012, published 2015).
# What was measured:
# rhGAA in PD fibroblasts = target: T1, rhGAA in PD fibroblasts (Homo sapiens, UniProt P10253); test: Correction of GAA activity by rhGAA in PD fibroblasts with chaperone (synergy); format: cell-based
# T1 construct: purchased Genzyme Co, Cambridge, Mass., USA
# Protocol: To study the rhGAA uptake and correction of GAA activity in PD fibroblasts, the cells were incubated with […] rhGAA for 24 hours, in the absence or in the presence of 10 mM NAC. Untreated cells or were used for comparison. After the incubation the cells were harvested by trypsinization and disrupted by 5 cycles of freezing and thawing.
# (§1) GAA activity was assayed by using the fluorogenic substrate 4-methylumbelliferyl-alpha-D-glucopyranoside (Sigma-Aldrich) according to a published procedure [Porto et al, 2009]. Briefly, 25 micrograms of protein were incubated with the fluorogenic substrate (2 mM) in 0.2 M acetate buffer, pH 4.0, for 60 minutes in incubation mixtures of 100 μl. The reaction was stopped by adding 700 μl of glycine-carbonate buffer, pH 10.7. Fluorescence was read at 365 nm (excitation) and 450 nm (emission) on a Turner Biosystems Modulus fluorometer. Protein concentration in cell homogenates was measured by the Bradford assay (Biorad, Hercules, Calif.).
# (§2) To study GAA immunoreactive material, fibroblast extracts were subjected to western blot analysis. The cells were harvested, washed in phosphate-buffered saline, resuspended in water, and disrupted by five cycles of freeze-thawing. Equal amounts (20 μg protein) of fibroblast extracts were subjected to sodium dodecyl sulfate polyacrylamide gel electrophoresis and proteins were transferred to PVD membrane (Millipore, Billerica, Mass.). An anti-human GAA antiserum was used as primary antibody to detect GAA polypeptides; to detect β-actin, a monoclonal mouse antibody was used Immunoreactive proteins were detected by chemiluminescence (ECL, Amersham, Freiburg, Germany)
# To study the distribution of AlexaFluor546 labeleld GAA, PD fibroblasts grown on coverslips were fixed using methanol, permeabilized using 0.1% saponin and locked with 0.01% saponin, 1% fetal bovine serum diluted in phosphate-buffered saline for 1 hour. The cells were incubated with the primary antibodies, with secondary antibodies in blocking solution and then mounted with vectashield mounting medium (Vector Laboratories, Burlingame, Calif.). Samples were examined with a Zeiss LSM 5 10 laser scanning confocal microscope. Authors used Argon/2 (458, 477, 488, and 514 nanometers) and HeNe1 (543 nanometers) excitation lasers, which were switched-on separately to reduce crosstalk of the two fluorochromes. The green and the red emissions were separated by a dichroic splitter (FT 560) and filtered (515-540-nm bandpass filter for green and >610-nm long pass filter for red emission). A threshold was applied to the images to exclude ˜99% of the signal found in control images.
# mutated GAA [1] = target: T2, mutated GAA (Homo sapiens, UniProt P10253, L552P); test: Mutated GAA gene constructs expressed in COS7 cells (GAA activity, western blot); format: cell-based; details: 10 mM
# T2 construct: expressed in transfected cells; host or cells: COS7 cells
# Protocol: as §1, §2
# (§3) The response of individual mutations to NAC was further evaluated by expressing a panel of mutated GAA gene constructs in COST cells, according to the methods reported in previous studies [Parenti et al, 2007; Flanagan et a, 2009] (FIG. 5B). The mutated constructs were chosen to be representative of both imino sugar-responsive and non-responsive mutations, in order to compare the chaperoning profile of NAC with that of imino sugars. The cells were transfected with the mutated constructs, incubated either in the presence or in the absence of 10 mM NAC and harvested 72 hours after transfection.
# mutated GAA [2] = target: T3, mutated GAA (Homo sapiens, UniProt P10253, Y455F); test: as above; format: cell-based; details: 10 mM, harvested 72 hours after transfection, p<0.05
# T3 construct: expressed in transfected cells; host or cells: COS7 cells
# Protocol: as §1, §2, §3
# mutated GAA [3] = target: T4, mutated GAA (Homo sapiens, UniProt P10253, E579K); test: as above; format: cell-based; details: 10 mM, COS7 cells (FIG. 5B)
# T4 construct: expressed in transfected cells; host or cells: COS7 cells
# Protocol: as §1, §2, §3
# mutated GAA [4] = target: T5, mutated GAA (Homo sapiens, UniProt P10253, G377R); test: as above; format: cell-based; details: 10 mM, harvested 72 hours after transfection
# T5 construct: expressed in transfected cells; host or cells: COS7 cells
# Protocol: as §1, §2, §3
# rhGAA [5] = target: T6, rhGAA (Homo sapiens, UniProt P10253); test: Effect on rhGAA enzyme activity (standard activity assay); format: biochemical; details: three concentrations (FIG. 4)
# T6 construct: purchased Genzyme Co, Cambridge, Mass., USA
# Protocol: The standard activity assay of rhGAA was performed in 200 μl by using 5 μg of enzyme at 37° C. in 100 mM sodium acetate pH 4.0 and 20 mM 4NP-Glc. The reaction was started by adding the enzyme; after suitable incubation time (1-2 min) the reaction was blocked by adding 800 μL of 1 M sodium carbonate pH 10.2. Absorbance was measured at 420 nm at room temperature, the extinction coefficient to calculate enzymatic units was 17.2 mM^−1 cm^−1. One enzymatic unit is defined as the amount of enzyme catalyzing the conversion of 1 μmol substrate into product in 1 min, under the indicated conditions.
# rhGAA [6] = target: T6, rhGAA; test: Thermal stability scans of rhGAA (SYPRO Orange); format: binding; details: pH 7.4
# Protocol: Thermal stability scans of rhGAA were performed as described in [Flanagan et al. 2009]. Briefly, 2.5 μg of enzyme were incubated in the absence and in the presence of NAC and DNJ, 10 mM and 0.1 mM, respectively, SYPRO Orange dye, and sodium phosphate 25 mM buffer, 150 mM NaCl, pH 7.4 or sodium acetate 25 mM buffer, 150 mM NaCl, pH 5.2. Thermal stability scans were performed at 1° C./min in the range 25-95° C. in a Real Time LightCycler (Bio-Rad). SYPRO Orange fluorescence was normalized to maximum fluorescence value within each scan to obtain relative fluorescence. Melting temperatures were calculated according to (Niesen et al. 2007).
structure (smiles),measurement,setting,value
"CC(=O)N[C@@H](CS)C(=O)O [NAC, N-acetyl cysteine]",amount of fluorochrome-labelled GAA compared to fluorescent GAA alone,rhGAA in PD fibroblasts; PD fibroblasts,increase
same,correction of the enzymatic defect on co-administration with rhGAA,rhGAA in PD fibroblasts; PD fibroblasts,complete correction
same,processing of rhGAA into the mature active isoforms,"rhGAA in PD fibroblasts; PD fibroblasts, western blot band density",improved
same,GAA-related polypeptides on western blot compared to rhGAA alone,"rhGAA in PD fibroblasts; PD fibroblasts, with rhGAA",increased amounts
same,"improvement of GAA activity on co-administration with rhGAA, dose dependence","rhGAA in PD fibroblasts; fibroblasts from patient 3, 0.02-10 mM",dose-dependent effect
same,"76 KDa or 70 kDa active isoforms of GAA on western blot, p.L552P",mutated GAA [1]; COS7 cells,increase
same,"GAA activity, mutation p.L552P","mutated GAA [1]; harvested 72 hours after transfection, p<0.01",enhancement of GAA activity
same,"GAA activity, mutation p.Y455F",mutated GAA [2],enhancement of GAA activity
same,"GAA activity, mutation p.E579K",mutated GAA [3],increases of GAA activity
same,"increase in GAA activity, mutation pG377R",mutated GAA [4],not statistically significant
same,effect on the activity of the enzyme (rhGAA),rhGAA [5],not a competitive inhibitor
same,ΔTm at 10000 µM,"rhGAA [6]; 10 mM, read-out: increase of melting temperature (Tm) of rhGAA",10.5 ± 0.5 °C
same,Tm of rhGAA in the presence of chaperone,"rhGAA [6]; NAC 10 mM, DNJ 0.1 mM",60.7±0.5 °C
